Measured values published in patent publication US6559339B1, “Method for crystallizing carboxylic acid” (Rhodia Fiber & Resin Intermediates, priority 1998, dated 2003).

Test: heating test: absorbance at 454 nm of ammonium adipate solutions after heating the adipic acid batches
Format: physicochemical
Details: 50 g heated to 215° C. for 205 min, then placed in 415 ml aqueous 5% ammonia solution, reference adipic acid (A) = 1
Method: The adipic acid batches (A) and (B) are subjected to a heating test. This test consists in heating 50 g of each batch to 215° C. for 205 min and then placing each of them in 415 ml of aqueous 5% ammonia solution. The absorbence at 454 nm of the ammonium adipate solutions obtained is then measured.
The results below are obtained, expressed as relative absorbences, the reference adipic acid (A) representing the value 1:
This test consists in heating 50 g of each batch to 215° C. for 205 min and then placing each of them in 415 ml of aqueous 5% ammonia solution.
The absorbance at 454 nm of the ammonium adipate solutions obtained is then measured.
The following results are obtained, expressed as relative absorbances, the reference adipic acid (A) representing the value 1: […]

With O=C(O)CCCCC(=O)O [adipic acid (C), adipic acid] the “Relative absorbance at 454 nm” value (listed as C) was 0.3.

For O=C(O)CCCCC(=O)O [adipic acid (A), adipic acid, reference compound], the “Relative absorbance at 454 nm” value was 1 and the “relative absorbence at 454 nm” value was 1.

For O=C(O)CCCCC(=O)O [adipic acid (D), adipic acid], the “Relative absorbance at 454 nm” value (listed as D) was 0.2.

In the case of O=C(O)CCCCC(=O)O [adipic acid (B), adipic acid], the “relative absorbence at 454 nm” value is reported as 0.25.

In the case of O=C(O)CCCCC(=O)O [adipic acid (E), adipic acid], the “Relative absorbance at 454 nm” value (listed as E) is reported as 0.5.
